We go through 1 compound from PMC6199744, “Development of Chemical Proteomics for the Folateome and Analysis of the Kinetoplastid Folateome” (ACS Infectious Diseases, 2018).

Like-named read-outs stand apart in the source and are kept apart here.

Common to all, as to type: binding
Experiment [1] deals with T1, HeLa cell extract proteins (Homo sapiens, UniProt O60701).
T1 construct: endogenous in cells; host or cells: HeLa cell extract
T1 sequence (O60701 1-494): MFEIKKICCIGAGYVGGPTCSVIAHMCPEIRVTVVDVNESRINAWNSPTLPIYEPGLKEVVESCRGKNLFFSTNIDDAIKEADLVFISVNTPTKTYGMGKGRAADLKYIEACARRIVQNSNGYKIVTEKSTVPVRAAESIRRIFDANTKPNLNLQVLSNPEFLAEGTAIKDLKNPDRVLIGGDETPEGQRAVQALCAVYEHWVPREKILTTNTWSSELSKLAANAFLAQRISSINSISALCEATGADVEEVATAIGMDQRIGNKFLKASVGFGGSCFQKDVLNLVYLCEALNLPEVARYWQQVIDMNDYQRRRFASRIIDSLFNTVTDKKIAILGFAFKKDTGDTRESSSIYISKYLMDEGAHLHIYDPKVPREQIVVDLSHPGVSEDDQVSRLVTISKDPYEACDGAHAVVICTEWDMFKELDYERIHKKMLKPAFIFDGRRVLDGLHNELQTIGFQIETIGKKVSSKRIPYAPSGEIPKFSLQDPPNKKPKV
Particulars: HeLa; protein UGDH.

Experiment [2] has as its target T2, HeLa cell extract proteins (Homo sapiens, UniProt P24752).
T2 construct: endogenous in cells; host or cells: HeLa cell extract
T2 sequence (P24752 34-427): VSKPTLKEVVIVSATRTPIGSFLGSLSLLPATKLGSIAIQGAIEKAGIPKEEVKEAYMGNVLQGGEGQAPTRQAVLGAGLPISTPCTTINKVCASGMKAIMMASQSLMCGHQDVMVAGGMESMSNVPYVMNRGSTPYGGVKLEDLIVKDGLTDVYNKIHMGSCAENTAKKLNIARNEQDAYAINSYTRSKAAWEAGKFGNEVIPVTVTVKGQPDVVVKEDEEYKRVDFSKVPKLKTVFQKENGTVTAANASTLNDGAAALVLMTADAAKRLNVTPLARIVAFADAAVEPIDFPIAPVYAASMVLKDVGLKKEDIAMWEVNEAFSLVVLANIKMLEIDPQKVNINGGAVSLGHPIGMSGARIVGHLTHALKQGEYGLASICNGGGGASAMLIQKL
Particulars: protein ACAT1; HeLa.

The target in experiment [3] is T3, HeLa cell extract proteins (Homo sapiens, UniProt P49773).
T3 construct: endogenous in cells; host or cells: HeLa cell extract
Particulars: HeLa; captured protein HINT1.

Experiment [4] concerns the target T4, HeLa cell extract proteins (Homo sapiens, UniProt P50502).
T4 construct: endogenous in cells; host or cells: HeLa cell extract
T4 sequence (P50502 1-369): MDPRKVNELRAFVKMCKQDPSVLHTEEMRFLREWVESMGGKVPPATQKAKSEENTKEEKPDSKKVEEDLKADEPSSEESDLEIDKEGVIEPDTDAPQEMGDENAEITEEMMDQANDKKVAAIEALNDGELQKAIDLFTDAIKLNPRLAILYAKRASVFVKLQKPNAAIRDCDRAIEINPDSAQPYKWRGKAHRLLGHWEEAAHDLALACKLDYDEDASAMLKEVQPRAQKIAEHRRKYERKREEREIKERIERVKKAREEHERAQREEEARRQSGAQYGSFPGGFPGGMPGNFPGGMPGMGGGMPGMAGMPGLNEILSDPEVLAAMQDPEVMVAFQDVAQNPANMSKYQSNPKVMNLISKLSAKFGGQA
Particulars: protein ST13; HeLa.

Experiment [5] has as its target T5, HeLa cell extract proteins (Homo sapiens, UniProt P53634).
T5 construct: endogenous in cells; host or cells: HeLa cell extract
Particulars: HeLa; protein CTSC (DIPEPTIDYL-PEPTIDASE 1 PRECURSOR).

Experiment [6] has as its target T6, HeLa cell extract proteins (Homo sapiens, UniProt Q02218).
T6 construct: endogenous in cells; host or cells: HeLa cell extract
T6 sequence (Q02218 41-1023): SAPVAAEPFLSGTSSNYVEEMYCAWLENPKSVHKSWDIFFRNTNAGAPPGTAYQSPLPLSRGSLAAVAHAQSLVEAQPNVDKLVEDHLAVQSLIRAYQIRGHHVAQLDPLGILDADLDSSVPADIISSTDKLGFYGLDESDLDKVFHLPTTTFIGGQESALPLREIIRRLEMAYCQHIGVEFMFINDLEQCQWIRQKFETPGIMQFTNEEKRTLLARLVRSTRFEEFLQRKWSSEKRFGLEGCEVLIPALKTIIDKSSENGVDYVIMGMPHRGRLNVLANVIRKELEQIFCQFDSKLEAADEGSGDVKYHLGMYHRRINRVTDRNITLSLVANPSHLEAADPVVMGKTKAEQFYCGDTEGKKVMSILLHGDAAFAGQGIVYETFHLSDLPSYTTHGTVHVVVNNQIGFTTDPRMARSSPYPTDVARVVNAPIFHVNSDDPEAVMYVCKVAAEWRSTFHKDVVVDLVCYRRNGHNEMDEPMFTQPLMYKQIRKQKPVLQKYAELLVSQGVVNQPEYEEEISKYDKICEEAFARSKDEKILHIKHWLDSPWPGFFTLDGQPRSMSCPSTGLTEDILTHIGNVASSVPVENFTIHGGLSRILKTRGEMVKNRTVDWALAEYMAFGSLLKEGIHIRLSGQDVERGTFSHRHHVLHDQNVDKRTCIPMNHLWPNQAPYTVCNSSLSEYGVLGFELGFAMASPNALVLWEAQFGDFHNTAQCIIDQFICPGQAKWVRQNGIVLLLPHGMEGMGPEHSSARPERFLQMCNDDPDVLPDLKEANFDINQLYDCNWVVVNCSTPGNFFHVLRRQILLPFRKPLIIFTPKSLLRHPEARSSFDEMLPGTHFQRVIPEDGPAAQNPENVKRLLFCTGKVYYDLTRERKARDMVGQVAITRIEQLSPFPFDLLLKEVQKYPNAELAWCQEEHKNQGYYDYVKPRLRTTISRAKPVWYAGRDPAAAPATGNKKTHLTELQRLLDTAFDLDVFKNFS
Particulars: HeLa; captured protein OGDH.

Experiment [7] has as its target T7, HeLa cell extract proteins (Homo sapiens, UniProt Q15120).
T7 construct: endogenous in cells; host or cells: HeLa cell extract
Particulars: HeLa; protein PDK3.

In experiment [8] the target is T8, HeLa cell extract proteins (Homo sapiens, UniProt Q15436).
T8 construct: endogenous in cells; host or cells: HeLa cell extract
Particulars: HeLa; protein SEC23A.

The test system of experiment [9] is HeLa cell extract proteins. Particulars: HeLa.

T3 sequence (P49773 whole entry): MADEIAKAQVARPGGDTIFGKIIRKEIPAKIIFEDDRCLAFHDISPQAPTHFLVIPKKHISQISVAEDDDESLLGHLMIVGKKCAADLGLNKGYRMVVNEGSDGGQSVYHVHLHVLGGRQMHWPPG
T7 sequence (Q15120 whole entry): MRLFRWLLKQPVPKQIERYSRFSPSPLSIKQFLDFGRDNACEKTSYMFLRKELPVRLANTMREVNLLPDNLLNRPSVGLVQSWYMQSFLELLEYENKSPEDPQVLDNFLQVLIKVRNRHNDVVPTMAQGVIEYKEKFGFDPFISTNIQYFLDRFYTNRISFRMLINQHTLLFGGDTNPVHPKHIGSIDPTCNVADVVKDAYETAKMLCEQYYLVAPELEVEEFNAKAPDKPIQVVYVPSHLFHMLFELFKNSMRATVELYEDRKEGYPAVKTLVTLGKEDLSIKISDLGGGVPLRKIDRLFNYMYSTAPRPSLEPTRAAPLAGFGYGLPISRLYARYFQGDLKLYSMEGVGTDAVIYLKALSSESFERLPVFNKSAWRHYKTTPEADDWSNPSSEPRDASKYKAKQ
T5 sequence (P53634 25-463): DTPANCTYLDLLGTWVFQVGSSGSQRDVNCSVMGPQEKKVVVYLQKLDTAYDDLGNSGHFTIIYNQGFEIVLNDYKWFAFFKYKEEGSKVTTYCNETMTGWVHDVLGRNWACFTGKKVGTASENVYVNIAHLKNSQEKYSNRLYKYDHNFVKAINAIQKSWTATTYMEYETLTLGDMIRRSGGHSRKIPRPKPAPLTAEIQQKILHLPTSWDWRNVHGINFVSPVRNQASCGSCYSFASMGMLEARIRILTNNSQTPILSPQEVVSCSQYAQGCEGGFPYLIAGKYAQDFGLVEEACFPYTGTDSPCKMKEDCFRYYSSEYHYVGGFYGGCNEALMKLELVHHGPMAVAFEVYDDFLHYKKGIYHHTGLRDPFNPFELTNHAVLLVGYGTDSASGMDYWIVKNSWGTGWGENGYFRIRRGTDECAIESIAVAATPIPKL
T8 sequence (Q15436 whole entry): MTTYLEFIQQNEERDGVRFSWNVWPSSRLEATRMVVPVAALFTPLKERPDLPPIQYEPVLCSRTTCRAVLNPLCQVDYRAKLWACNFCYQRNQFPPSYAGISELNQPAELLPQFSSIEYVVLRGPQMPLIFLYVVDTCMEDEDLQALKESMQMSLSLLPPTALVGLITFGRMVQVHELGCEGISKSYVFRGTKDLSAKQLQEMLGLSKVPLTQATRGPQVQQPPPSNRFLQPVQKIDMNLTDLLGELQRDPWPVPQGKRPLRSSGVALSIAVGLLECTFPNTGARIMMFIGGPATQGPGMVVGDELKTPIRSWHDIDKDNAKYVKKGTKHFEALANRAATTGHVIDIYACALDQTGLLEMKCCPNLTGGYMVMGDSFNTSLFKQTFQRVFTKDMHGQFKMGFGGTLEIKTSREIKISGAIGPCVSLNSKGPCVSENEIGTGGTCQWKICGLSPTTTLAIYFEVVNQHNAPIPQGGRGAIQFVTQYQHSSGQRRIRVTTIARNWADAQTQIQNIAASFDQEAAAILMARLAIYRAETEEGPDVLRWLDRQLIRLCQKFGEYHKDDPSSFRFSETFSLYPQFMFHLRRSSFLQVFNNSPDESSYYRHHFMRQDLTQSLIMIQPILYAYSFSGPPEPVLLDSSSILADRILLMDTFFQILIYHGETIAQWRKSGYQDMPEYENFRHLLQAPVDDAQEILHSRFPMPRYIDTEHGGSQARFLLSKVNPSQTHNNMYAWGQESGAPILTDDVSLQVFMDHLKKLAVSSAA

Take `NCCCNc1ccc(C(=O)NC(CCC(=O)O)C(=O)O)cc1` (stereo not drawn) [compound 7]: the “fold changes relative to vehicle control” value in experiment [1] came to 0.9; in [2], 0.87; in [3], 1.33; in experiment [4], 1.04; in experiment [5] it was 0.97; in experiment [6], 1.04. For the same compound, the “fold changes relative to vehicle control” value in [7] came to 0.99; in experiment [8] it was 1.1; in [9] (captured protein EIF1AP1), 0.98; in experiment [9] (captured protein LOC442497) it was 1.05; in experiment [9] (protein ABCB7 (ISOFORM 2 OF ATP-BINDING CASSETTE SUB-FAMILY B MEMBER 7, MIT[…])), 1.23; in experiment [9] (protein ASAH1 (N-ACYLSPHINGOSINE AMIDOHYDROLASE (ACID CERAMIDASE) 1 ISOFORM B)), 1.18. In addition, the “fold changes relative to vehicle control” value is 1 in [9] (protein GTPBP3 (ISOFORM 2 OF TRNA MODIFICATION GTPASE GTPBP3, MITOCHONDRIAL PRECURSOR)); 0.99 in experiment [9] (protein LOC654188); 1.14 in experiment [9] (protein MYL6 (ISOFORM SMOOTH MUSCLE OF MYOSIN LIGHT POLYPEPTIDE 6)); 0.91 in [9] (protein NME1-NME2); 1.02 in [9] (protein PSMA1 (ISOFORM LONG OF […] ALPHA TYPE 1)); 0.98 in experiment [9] (protein PSME1 (PROTEASOME ACTIVATOR SUBUNIT 1 ISOFORM 2)). Also, the “fold changes relative to vehicle control” value in [9] (protein RPLP0-LIKE) worked out at 0.93; in experiment [9] (protein HIST2H2BA) it was 0.9; in experiment [9] (protein LOC646960), 1.02.
